From ChEMBL document CHEMBL1125304, “Synthesis and antitumor activity of 3- and 5-hydroxy-4-methylpyridine-2-carboxaldehyde thiosemicarbazones” (1992) come the findings set out here.

The subject of experiment [1] is Mus musculus. The experiment in a line: Ratio of the survival time of treated to control mice bearing the L1210 leukemia after intraperitoneal administration of the 40 mg/kg compound in the DMSO solution form.
The subject of experiment [2] is Mus musculus. The experiment in a line: Average weight change of mice bearing the L1210 leukemia (24 hr after tumor implantation) after intraperitoneal administration of the 40 mg/kg compound in the DMSO solution form.
In experiment [3] the test system is Mus musculus. The experiment in a line: Ratio of the survival time of treated to control mice bearing the L1210 leukemia after intraperitoneal administration of the 40 mg/kg compound in the suspension form.
Experiment [4] concerns Mus musculus. The experiment in a line: Average weight change of mice bearing the L1210 leukemia (24 hr after tumor implantation) after intraperitoneal administration of the 40 mg/kg compound in the suspension form.
The test system of experiment [5] is Mus musculus. The experiment in a line: Ratio of the survival time of treated to control mice bearing the L1210 leukemia after intraperitoneal administration of the 50 mg/kg compound in the suspension form.
Experiment [6] has as its system Mus musculus. The experiment in a line: Average weight change of mice bearing the L1210 leukemia (24 hr after tumor implantation) after intraperitoneal administration of the 50 mg/kg compound in the suspension form.

A word on the T/C: it is the result in the treated group divided by that in the control group, in per cent. As to `N/C(S)=N/N=C/c1ccc(O)cn1`, the T/C with Mus musculus [1] stood at 132%. For the same compound, the Average weight change in the experiment with Mus musculus [2] is listed as 1.8%.
On to `Cc1cc(/C=N/N=C(/N)S)ncc1O`, for which the T/C with Mus musculus [1] was 138%; with Mus musculus [3] it was 186%. The Average weight change with Mus musculus [2] is recorded as -7.4%; in the experiment on Mus musculus [4], -3.4%.
For `Cc1ccnc(/C=N/N=C(/N)S)c1O`, the figures for the T/C in the experiment with Mus musculus [1] and in the experiment on Mus musculus [5] were 135% and 168%, respectively. Also, the Average weight change in the experiment with Mus musculus [2] worked out at 0.5%; in the experiment on Mus musculus [6] it was 0.9%.
Regarding `N/C(S)=N/N=C/c1ncccc1O`, the T/C in the experiment on Mus musculus [1] is on record as 114%. In addition, the Average weight change in the experiment on Mus musculus [2] was 1.5%.
